“Also recorded” adds a separate entry of the source. Positions of bridges follow the written chain, without caps; N, C: chain ends. No end group written: not given here.
Assays:
normal rats = conditions: repeated administration; cited from earlier work
[1] = system: mouse bone marrow cells (CFU-E); test: in vitro mouse CFU-E colony assay (methyl cellulose semi-solid medium, with rHuEPO); format: cell-based
Method: In the case of oral administration to rats, the blood arginine concentration reaches about 600 μM by a single-dose administration of arginine at 1.2 g/kg. Therefore, it is expected that the number of CFU-E increases in a dose-dependent manner by such an oral administration. Also in humans, it is expected that the number of CFU-E increases as the concentration of arginine in the blood increases by the oral administration.
An in vitro mouse CFU-E colony assay was carried out in accordance with the following method. After a female BDF-1 mouse at 10 weeks of age (Charles River Japan, Inc.) was killed by the cervical dislocation method, bone marrow cells were isolated from the femur and suspended in an IMDM medium (Invitrogen) containing 10% FCS (JRH Bioscience Inc). The bone marrow cells were centrifuged at 1500 rpm for 10 minutes at 4° C. and the precipitated bone marrow cells were resuspended in an amino acid-free IMDM medium and the number of cells was measured. […] Then, the number of CFU-E colonies was measured using an inverted microscope. […]
In the graph, * indicates P<0.05. The data is expressed as a mean value±SEM. […]

[2] = system: mouse bone marrow cells (CFU-E); test: CFU-E colony assay with EPO mimetic peptide EMP1; format: cell-based
Method: After a female BDF-1 mouse at 10 weeks of age (Charles River Japan, Inc.) was killed by the cervical dislocation method, bone marrow cells were isolated from the femur and suspended in an IMDM medium (Invitrogen) containing 10% FCS (JRH Bioscience Inc). The bone marrow cells were centrifuged at 1500 rpm for 10 minutes at 4° C. and the precipitated bone marrow cells were resuspended in an amino acid-free IMDM medium and the number of cells was measured. To a dish with a diameter of 3.5 cm (Nalgen Nunc, Inc. International), 1 ml of a methyl cellulose semi-solid medium in which the bone marrow cells were suspended {30 μM EMP1, 100 μM 2-mercaptoethanol (Wako Pure Chemical Industries, Ltd.), 24% FCS (JRH Bioscience Inc.), 0.8% methyl cellulose (methyl cellulose containing IMDM solution […], Stem Cell Technologies, Inc.), 2% BSA (SIGMA-ALDRICH Japan K.K.), 1×10^5 cells/ml of bone marrow cells} containing arginine at a concentration of 170 μM was added (which is equal to an IMDM medium whose concentration of the amino acid composition is one-third and which includes FCS at 24%). […] Then, the number of CFU-E colonies was measured using an inverted microscope. […] The data is expressed as a mean value ±SEM. […]

Compound | amount of hemoglobin (normal rats) | amount of red blood cells (normal rats) | number of CFU-E colonies ([1]; arginine 600 μM vs 170 μM, 1 IU/ml rHuEPO, 48 hours, per 2.2×10^5 bone marrow cells, P<0.05) | combined effect of arginine with EPO on CFU-E ([1]; arginine concomitantly with a sufficient amount of EPO) | number of CFU-E colonies ([2]; arginine 770 μM vs 170 μM, 30 μM EMP1, 48 hours, P<0.05) | amount of EMP1 for the highest action (CFU-E colonies) ([2]; same condition as FIG. 2A, FIG. 2B) [µM]
N=C(N)NCCC[C@H](N)C(=O)O [arginine] | increased | increased | increased the number of CFU-E; also recorded: further increases CFU-E; also recorded: significantly increases | synergistic effect | increased the number of CFU-E | 
GGTYSCHFGPLTWVCKPQGG-NH2 (disulfide 6-15; N-terminus assumed; SMILES CC(C)C[C@@H]1NC(=O)[C@@H]2CCCN2C(=O)CNC(=O)[C@H](Cc2ccccc2)NC(=O)[C@H](Cc2c[nH]cn2)NC(=O)[C@@H](NC(=O)[C@H](CO)NC(=O)[C@H](Cc2ccc(O)cc2)NC(=O)[C@@H](NC(=O)CNC(=O)CN)[C@@H](C)O)CSSC[C@@H](C(=O)N[C@@H](CCCCN)C(=O)N2CCC[C@H]2C(=O)N[C@@H](CCC(N)=O)C(=O)NCC(=O)NCC(N)=O)NC(=O)[C@H](C(C)C)NC(=O)[C@H](Cc2c[nH]c3ccccc23)NC(=O)[C@H]([C@@H](C)O)NC1=O) [EMP1, EPO mimetic peptide described in Science, vol; 273, pp. 458-463 (1996), reference compound] |  |  |  |  |  | ≥ 10
